The text below walks through data of ChEMBL document CHEMBL4428109, “Structure-activity relationship studies of non-carboxylic acid peroxisome proliferator-activated receptor α/δ (PPARα/δ) dual agonists” (Bioorg Med Chem, 2016).

The target of assay [1] is T1, Peroxisome proliferator-activated receptor alpha (Homo sapiens, UniProt Q07869).
T1 sequence (Q07869 whole entry): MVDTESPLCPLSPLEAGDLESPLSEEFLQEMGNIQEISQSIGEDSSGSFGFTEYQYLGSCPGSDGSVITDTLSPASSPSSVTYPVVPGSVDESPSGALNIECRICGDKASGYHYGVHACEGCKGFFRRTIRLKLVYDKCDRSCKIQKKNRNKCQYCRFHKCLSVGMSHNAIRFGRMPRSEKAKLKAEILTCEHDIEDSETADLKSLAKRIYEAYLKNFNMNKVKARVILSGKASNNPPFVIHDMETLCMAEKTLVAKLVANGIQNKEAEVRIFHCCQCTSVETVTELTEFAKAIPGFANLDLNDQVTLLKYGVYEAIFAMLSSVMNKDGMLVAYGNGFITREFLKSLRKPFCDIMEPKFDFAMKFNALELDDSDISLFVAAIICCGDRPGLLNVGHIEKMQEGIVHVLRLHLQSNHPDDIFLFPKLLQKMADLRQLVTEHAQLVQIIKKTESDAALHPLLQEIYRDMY
Briefly: Agonist activity at N-terminal Gal4 fused human PPARalpha LBD transfected in HEK293 cells after 24 hrs by luciferase reporter gene assay. The format is cell-based.

Assay [2] addresses T2, Retinoic acid receptor RXR-alpha (Homo sapiens) (UniProt P19793).
T2 sequence (whole entry): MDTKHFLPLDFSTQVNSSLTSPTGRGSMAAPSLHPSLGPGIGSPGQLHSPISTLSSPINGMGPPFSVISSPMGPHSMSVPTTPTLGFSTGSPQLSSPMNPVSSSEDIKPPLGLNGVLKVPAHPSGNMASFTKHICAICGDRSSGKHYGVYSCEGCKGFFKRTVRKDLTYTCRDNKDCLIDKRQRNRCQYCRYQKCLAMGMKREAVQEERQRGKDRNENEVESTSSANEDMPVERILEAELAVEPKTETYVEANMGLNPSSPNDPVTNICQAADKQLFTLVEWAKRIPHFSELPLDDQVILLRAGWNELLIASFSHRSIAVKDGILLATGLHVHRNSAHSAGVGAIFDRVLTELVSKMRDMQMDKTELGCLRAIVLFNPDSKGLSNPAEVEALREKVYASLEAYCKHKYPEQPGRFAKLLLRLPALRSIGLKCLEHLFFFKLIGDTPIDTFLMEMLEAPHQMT
Put plainly: Agonist activity at RXRalpha (unknown origin) at < 20 uM.

Assay [3] addresses T3, Peroxisome proliferator-activated receptor delta (Homo sapiens) (UniProt Q03181).
T3 sequence (whole entry): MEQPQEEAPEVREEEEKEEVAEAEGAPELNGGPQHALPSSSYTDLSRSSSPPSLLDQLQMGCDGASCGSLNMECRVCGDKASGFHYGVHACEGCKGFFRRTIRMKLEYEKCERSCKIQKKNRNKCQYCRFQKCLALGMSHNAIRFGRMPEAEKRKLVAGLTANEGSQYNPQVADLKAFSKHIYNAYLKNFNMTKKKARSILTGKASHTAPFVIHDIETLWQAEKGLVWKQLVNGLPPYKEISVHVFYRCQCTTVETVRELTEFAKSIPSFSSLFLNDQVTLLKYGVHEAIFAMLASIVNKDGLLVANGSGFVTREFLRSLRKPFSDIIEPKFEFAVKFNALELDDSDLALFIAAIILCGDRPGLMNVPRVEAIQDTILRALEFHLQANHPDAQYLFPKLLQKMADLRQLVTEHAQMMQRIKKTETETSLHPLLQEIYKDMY
Put plainly: Agonist activity at N-terminal Gal4 fused human PPARdelta LBD transfected in HEK293 cells after 24 hrs by luciferase reporter gene assay relative to GW501516. The format is cell-based. Background: Reporter assays use an easily measured gene product as a stand-in for the process of interest.

For assay [4], the target named is T4, Bile acid receptor (Homo sapiens) (UniProt Q96RI1).
T4 sequence (whole entry): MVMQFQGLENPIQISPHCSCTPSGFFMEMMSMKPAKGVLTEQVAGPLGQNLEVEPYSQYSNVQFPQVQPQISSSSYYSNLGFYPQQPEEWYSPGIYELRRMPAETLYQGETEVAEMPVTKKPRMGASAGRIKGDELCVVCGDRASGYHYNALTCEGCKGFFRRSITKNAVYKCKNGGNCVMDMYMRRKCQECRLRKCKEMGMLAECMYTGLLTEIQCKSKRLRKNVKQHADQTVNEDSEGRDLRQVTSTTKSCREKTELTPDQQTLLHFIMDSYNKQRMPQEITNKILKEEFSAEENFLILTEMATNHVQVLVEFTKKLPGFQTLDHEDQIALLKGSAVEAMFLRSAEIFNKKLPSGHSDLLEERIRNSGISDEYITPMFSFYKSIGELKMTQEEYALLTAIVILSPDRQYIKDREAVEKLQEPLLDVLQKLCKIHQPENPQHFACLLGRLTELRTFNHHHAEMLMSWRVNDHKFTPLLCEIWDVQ
Briefly: Agonist activity at FXR (unknown origin) at < 20 uM.

The target of assay [5] is T5, Peroxisome proliferator-activated receptor delta (Homo sapiens, UniProt Q03181).
T5 sequence (Q03181 whole entry): T3 sequence (whole entry)
Briefly: Agonist activity at N-terminal Gal4 fused human PPARdelta LBD transfected in HEK293 cells after 24 hrs by luciferase reporter gene assay. It counts as cell-based.

The target in assay [6] is T6, Oxysterols receptor LXR-alpha (Homo sapiens) (UniProt Q13133).
T6 sequence (whole entry): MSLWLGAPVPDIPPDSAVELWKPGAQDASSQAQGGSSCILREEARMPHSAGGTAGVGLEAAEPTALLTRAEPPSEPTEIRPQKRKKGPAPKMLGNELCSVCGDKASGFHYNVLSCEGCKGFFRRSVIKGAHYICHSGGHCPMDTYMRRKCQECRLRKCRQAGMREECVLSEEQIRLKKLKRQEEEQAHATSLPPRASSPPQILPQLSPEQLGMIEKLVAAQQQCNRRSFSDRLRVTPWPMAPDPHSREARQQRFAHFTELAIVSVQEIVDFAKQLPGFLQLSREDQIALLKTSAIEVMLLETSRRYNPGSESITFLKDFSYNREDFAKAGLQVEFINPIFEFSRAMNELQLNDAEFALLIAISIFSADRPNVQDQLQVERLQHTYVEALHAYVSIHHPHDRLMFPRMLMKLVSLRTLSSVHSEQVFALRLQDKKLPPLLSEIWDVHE
Briefly: Agonist activity at LXRalpha (unknown origin) at < 20 uM.

The structures appear in SMILES notation. Activity calls are given as the source filed them. No cut-off for these calls is given here.

As usually defined, the EC50 is the concentration needed to bring the measured effect to its halfway point. Higher therefore signals lower potency in that assay. For the compound `CC(=O)NC(C)c1nc(-c2ccc(Oc3ccc(OCc4ccccc4)cc3)cc2)no1` (stereo unspecified), the values for the concentration for a half-maximal effect (EC50) in assay [1] and in assay [5] were 33 nM and 46 nM, respectively. For the same compound, the result in assay [2], in assay [4] and in assay [6] was inactive. The Emax in assay [3] fell in the range of 5 to 10%.
